According to ChEMBL document CHEMBL1201862, “PubChem BioAssay data set” (2004):
The source made the active and inactive calls.

Legend:
[1] = target: T1, Mu-type opioid receptor (Homo sapiens, UniProt P35372); test: MOR agonists by imaging, SAR follow-up, image-based (AID 2352); assay type: functional
[2] = target: T2, Delta-type opioid receptor (Homo sapiens, UniProt P41143); test: DOR antagonists, SAR follow-up, image-based (AID 2357); assay type: functional
[3] = target: T3, Kappa-type opioid receptor (Homo sapiens, UniProt P41145); test: KOR agonist analogs, imaging readout, SAR follow-up, image-based (AID 2359); assay type: functional
[4] = target: T3, Kappa-type opioid receptor; test: kappa opioid receptor blockers, cell-based, luminescence, beta-arrestin, SAR follow-up (AID 2285); assay type: functional
[5] = target: T3, Kappa-type opioid receptor; test: KOR antagonists by imaging, SAR follow-up, image-based (AID 2348); assay type: functional
[6] = target: T2, Delta-type opioid receptor; test: DOR agonists, SAR follow-up, image-based (AID 2370); assay type: functional
[7] = target: T1, Mu-type opioid receptor; test: MOR antagonists, SAR follow-up, image-based (AID 2420); assay type: functional;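 note: compounds added before stimulation of receptor with agonist DAMGO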
[8] = target: Troponin, cardiac muscle (Homo sapiens, UniProt P19429+P45379+P63316); test: Fluorescence-based biochemical high throughput dose response assay for activators of the calcium sensitivity of cardiac Regulated Thin Filaments (RTF). [Related pubchem assays (depositor defined):AID493008, AID493018, AID504382, AID504383]; assay type: protein-complex assay
[9] = target: Cytochrome P450 2C9 (Homo sapiens, UniProt P11712); details: Potency
[10] = target: Cytochrome P450 3A4 (Homo sapiens, UniProt P08684); details: Potency;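 note: confirmatory qHTS run detecting inhibitors and substrates of CYP3A4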
[11] = target: Peroxisome proliferator-activated receptor gamma/Nuclear receptor coactivator 2 (Homo sapiens, UniProt P37231); test: TR-FRET dose response biochemical High Throughput Screening assay for agonists of the steroid receptor coactivator 2 (SRC-2) recruitment by the peroxisome proliferator-activated receptor gamma (PPAR gamma): non-selective agonists. [Related pubchem assays: 1297, 1032 ]; assay type: functional
[12] = target: Peroxisome proliferator-activated receptor gamma/Nuclear receptor coactivator 3 (Homo sapiens, UniProt P37231); test: TR-FRET dose response biochemical High Throughput Screening assay for agonists of the steroid receptor coactivator 3 (SRC-3) recruitment by the peroxisome proliferator-activated receptor gamma (PPAR gamma): non-selective agonists. [Related pubchem assays: 1301 (Confirmation screen.), 1048 (Primary screen.)]; assay type: functional
[13] = target: Peroxisome proliferator-activated receptor gamma/Nuclear receptor coactivator 1 (Homo sapiens, UniProt P37231); test: TR-FRET dose response biochemical High Throughput Screening assay for agonists of the steroid receptor coactivator 1 (SRC-1) recruitment by the peroxisome proliferator-activated receptor gamma (PPAR gamma): non-selective agonists. [Related pubchem assays (depositor defined):AID1300, AID1808, AID504735, AID631]; assay type: protein assay
[14] = target: Cytochrome P450 2D6 (Homo sapiens, UniProt P10635); test: qHTS Assay for Inhibitors and Substrates of Cytochrome P450 2D6. [Related pubchem assays: 410 ]; assay type: ADME; details: read-out: Potency
[15] = target: T4, Serine/threonine-protein phosphatase (Candida dubliniensis (strain CD36 / CBS 7987 / NCPF 3949 / NRRLY-17841) (Yeast), UniProt B9W6M3); test: calcineurin pathway inhibitors in yeast reporter, dose response, S. cerevisiae, CDRE-lacZ, luminescence, secondary (AID 2388); assay type: functional, cell-based;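 note: yeast reporter cells carrying a calcineurin-responsive lacZ construct stimulated with calcium chloride; luminescent beta-galactosidase reporter signal in whole cells rather than isolated phosphatase activity; potency for inhibition where a drop in reporter signal means calcineurin blockade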
T4 sequence (B9W6M3 whole entry): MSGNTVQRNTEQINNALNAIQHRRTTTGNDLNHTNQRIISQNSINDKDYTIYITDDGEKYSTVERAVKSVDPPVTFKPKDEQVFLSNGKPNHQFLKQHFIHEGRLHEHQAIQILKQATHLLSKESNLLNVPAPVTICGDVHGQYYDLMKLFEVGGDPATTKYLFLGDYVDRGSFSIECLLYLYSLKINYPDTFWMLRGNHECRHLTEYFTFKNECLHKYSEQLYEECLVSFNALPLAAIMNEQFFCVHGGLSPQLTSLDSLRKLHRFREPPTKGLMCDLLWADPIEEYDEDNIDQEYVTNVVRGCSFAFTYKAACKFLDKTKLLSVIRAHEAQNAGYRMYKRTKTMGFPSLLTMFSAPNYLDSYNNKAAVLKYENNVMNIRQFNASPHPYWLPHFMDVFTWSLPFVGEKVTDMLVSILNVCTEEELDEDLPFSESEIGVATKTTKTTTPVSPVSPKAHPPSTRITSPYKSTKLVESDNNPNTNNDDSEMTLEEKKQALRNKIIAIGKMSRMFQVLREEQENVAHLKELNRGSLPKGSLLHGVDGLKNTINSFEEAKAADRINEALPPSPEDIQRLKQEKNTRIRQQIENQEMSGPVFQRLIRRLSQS

[16] = C. albicans growth with fluconazole, confirmation, fluorescence, retest (AID 2467); assay type: functional, cell-based
[17] = target: Aminopeptidase N (Plasmodium falciparum FcB1/Columbia, UniProt O96935); test: P. falciparum M1AAP inhibitors, biochemical, fluorogenic H-Leu-NHMec substrate, 1536-well (AID 1445); design: species or system Plasmodium falciparum 3D7, 3D7
[18] = NIH-3T3 fibroblast cytotoxicity, dose response, cytotoxicity control, cell-based, fluorescence, Alamar Blue, secondary assay (AID 2327); assay type: functional;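 note: NIH-3T3 mouse fibroblasts cultured with fluconazole at 8 µg/mL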
[19] = target: ATP-dependent molecular chaperone HSP82 (Candida albicans (strain WO-1) (Yeast), UniProt C4YTQ8); test: loss of DOC-induced GRE-beta-galactosidase reporter signal, dose response, Hsp90 inhibitor project, S. cerevisiae, luminescence (AID 2400); assay type: functional, cell-based;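 note: beta-galactosidase luminescence from glucocorticoid response element reporter as proxy for Hsp90 function; inhibitor potency where signal loss means Hsp90 inhibition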
[20] = tested on: HEK293; test: NOD2 signaling inhibitors in MDP-stimulated cells, cell-based, uHTS, luminescence (AID 2001); assay type: functional; details: Homo sapiens
[21] = tested on: HEK293; test: cells; assay type: functional, cell-based; details: Homo sapiens
[22] = tested on: HEK293; test: NOD1 signaling inhibitors, primary screen, cell-based, luminescence, uHTS (AID 1578); assay type: functional; details: Homo sapiens
[23] = target: T5, SUMO-activating enzyme (Homo sapiens, UniProt Q9UBT2); test: inhibitors of in vitro SUMOylation cascade, primary screen, biochemical, HTRF, uHTS (AID 2006); assay type: protein-complex assay
[24] = tested on: HEK293; test: cells; assay type: functional, cell-based; details: Homo sapiens; remark: listed apart in the source
[25] = target: T5, SUMO-activating enzyme; test: SUMOylation inhibitor hit validation, confirmation, SUMOylation inhibitor project, biochemical, AlphaScreen (AID 2018); assay type: functional
[26] = target: Melanin-concentrating hormone receptor 1 (Homo sapiens, UniProt Q99705); test: Fluorescence-based counterscreen for antagonists of the G-protein coupled receptor 7 (GPR7): cell-based high throughput dose response assay to identify antagonists of the melanin-concentrating hormone receptor 1 (MCHR1).; assay type: functional
[27] = growth suppression of beta-catenin-knockout colon cells, dose response, cell-based, HCT116, human colon tumor (AID 1045); assay type: functional;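 note: HCT116 colon tumor cells with beta catenin knocked out; cells exposed to compound for 60 hours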
[28] = target: T6, Sphingosine 1-phosphate receptor 4 (Homo sapiens, UniProt O95977); test: Fluorescence dose response cell-based high throughput screening assay for antagonists of the Sphingosine 1-Phosphate Receptor 4 (S1P4). [Related pubchem assays: 1524 (Confirmation in triplicates.), 1510 (Primary screen.)]; assay type: functional
T6 sequence (O95977 whole entry): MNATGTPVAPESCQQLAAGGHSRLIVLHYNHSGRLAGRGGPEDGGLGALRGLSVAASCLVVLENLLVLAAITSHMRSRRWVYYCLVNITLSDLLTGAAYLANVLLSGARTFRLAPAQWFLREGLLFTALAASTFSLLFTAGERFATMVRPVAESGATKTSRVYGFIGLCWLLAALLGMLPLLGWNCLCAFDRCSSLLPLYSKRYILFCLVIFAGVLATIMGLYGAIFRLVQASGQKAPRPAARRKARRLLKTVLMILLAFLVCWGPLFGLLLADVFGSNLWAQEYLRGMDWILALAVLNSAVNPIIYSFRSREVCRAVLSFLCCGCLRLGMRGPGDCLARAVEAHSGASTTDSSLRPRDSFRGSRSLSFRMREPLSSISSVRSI

[29] = target: Sphingosine 1-phosphate receptor 1 (Homo sapiens, UniProt P21453); assay type: functional;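 note: Tango beta-arrestin reporter U2OS cells stimulated with S1P near its EC80; inhibitor potency meaning antagonism of receptor activation by the natural agonist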
[30] = growth suppression of PTEN-null colon cells, dose response, cell-based, HCT116 PTEN knockout (AID 1047); assay type: functional;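 note: HCT116 colon tumor cells with PTEN knocked out; cells exposed to compound for 60 hours before readout; potency for loss of cell viability measured by luminescence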
[31] = cytotoxicity toward NIH3T3 fibroblasts, dose response, counter-screen, cell-based, ATP luminescence, mouse fibroblasts (AID 2010); assay type: functional;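 note: cells exposed to compound for about 90 hours before reading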
[32] = inhibitors of intracellular T. cruzi replication, confirmation, NIH3T3 host cells, beta-gal luminescence (AID 2044); assay type: functional, cell-based;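 note: intracellular parasites grown in NIH/3T3 mouse fibroblasts as host cells; luminescent beta-galactosidase reporter signal from transgenic T. cruzi replicating inside host cells; inhibitors lower the luminescence signal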
[33] = target: G-protein coupled receptor 35 (Homo sapiens, UniProt Q9HC97); test: GPR35 antagonists blocking zaprinast-driven arrestin recruitment, primary screen, imaging, U2OS, beta-arrestin-GFP, zaprinast agonist (AID 2058); assay type: functional;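 note: antagonist potency meaning inhibition of agonist-induced arrestin redistribution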
[34] = target: T7, Mannose-6-phosphate isomerase (Homo sapiens, UniProt P34949); test: human PMI inhibitors, high substrate, primary screen, biochemical, fluorescence intensity, high mannose 6-phosphate (AID 1220)
T7 sequence (P34949 whole entry): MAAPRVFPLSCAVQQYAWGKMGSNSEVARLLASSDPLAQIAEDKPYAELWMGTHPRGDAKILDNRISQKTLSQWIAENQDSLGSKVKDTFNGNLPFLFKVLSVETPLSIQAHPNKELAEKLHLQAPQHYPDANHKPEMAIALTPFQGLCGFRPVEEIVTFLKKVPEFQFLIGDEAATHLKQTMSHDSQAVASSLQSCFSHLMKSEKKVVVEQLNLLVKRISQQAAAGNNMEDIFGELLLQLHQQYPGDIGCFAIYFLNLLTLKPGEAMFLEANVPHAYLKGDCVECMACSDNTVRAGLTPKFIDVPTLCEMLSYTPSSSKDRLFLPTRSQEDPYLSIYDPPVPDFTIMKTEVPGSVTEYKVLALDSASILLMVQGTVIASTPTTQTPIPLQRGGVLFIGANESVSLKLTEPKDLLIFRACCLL

[35] = target: Eukaryotic translation initiation factor 4H (Homo sapiens, UniProt Q15056); test: human eIF4H binding inhibitors, primary screen, translation initiation inhibitor project, biochemical, uHTS, fluorescence polarization (AID 2012)
[36] = target: Polyadenylate-binding protein 1 (Homo sapiens, UniProt P11940); test: PABP poly(A) RNA binding inhibitors, primary screen, biochemical, fluorescence polarization, uHTS (AID 2014)
[37] = target: Eukaryotic translation initiation factor 4E (Mus musculus, UniProt P63073); test: eIF4E–eIF4G protein interaction inhibitors, dose response, biochemical, TR-FRET (AID 855); assay type: functional;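 note: potency for disrupting eIF4E binding to eIF4GI seen as loss of FRET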
[38] = target: Beta-lactamase (Salmonella choleraesuis (strain SC-B67), UniProt Q5J463)
[39] = target: Beta-lactamase (Pseudomonas aeruginosa, UniProt Q79MP6);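 note: biochemical dose-response test of metallo-beta-lactamase enzyme inhibition, read out by epi-absorbance; purified recombinant IMP-1 metallo-beta-lactamase with nitrocefin as substrate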

T2 sequence (P41143 whole entry): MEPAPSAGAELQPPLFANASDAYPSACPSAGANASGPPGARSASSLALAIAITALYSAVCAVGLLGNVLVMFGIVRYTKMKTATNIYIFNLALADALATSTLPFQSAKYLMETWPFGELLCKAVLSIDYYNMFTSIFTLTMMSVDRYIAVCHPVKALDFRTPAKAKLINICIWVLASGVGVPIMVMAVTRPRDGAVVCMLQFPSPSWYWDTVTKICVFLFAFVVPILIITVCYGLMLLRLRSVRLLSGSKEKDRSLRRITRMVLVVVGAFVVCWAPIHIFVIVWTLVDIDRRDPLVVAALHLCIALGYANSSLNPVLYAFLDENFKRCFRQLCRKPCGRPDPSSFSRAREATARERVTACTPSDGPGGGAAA
T3 sequence (P41145 whole entry): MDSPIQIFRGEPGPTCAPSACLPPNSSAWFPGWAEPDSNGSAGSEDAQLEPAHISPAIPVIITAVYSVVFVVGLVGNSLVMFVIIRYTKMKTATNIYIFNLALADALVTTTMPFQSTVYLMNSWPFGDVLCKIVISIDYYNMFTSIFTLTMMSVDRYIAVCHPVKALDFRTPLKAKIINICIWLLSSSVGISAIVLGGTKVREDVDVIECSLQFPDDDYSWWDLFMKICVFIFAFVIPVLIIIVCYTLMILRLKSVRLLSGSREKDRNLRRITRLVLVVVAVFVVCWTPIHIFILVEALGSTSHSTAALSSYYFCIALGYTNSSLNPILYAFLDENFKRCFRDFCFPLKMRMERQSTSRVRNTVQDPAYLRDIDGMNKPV
T1 sequence (P35372 whole entry): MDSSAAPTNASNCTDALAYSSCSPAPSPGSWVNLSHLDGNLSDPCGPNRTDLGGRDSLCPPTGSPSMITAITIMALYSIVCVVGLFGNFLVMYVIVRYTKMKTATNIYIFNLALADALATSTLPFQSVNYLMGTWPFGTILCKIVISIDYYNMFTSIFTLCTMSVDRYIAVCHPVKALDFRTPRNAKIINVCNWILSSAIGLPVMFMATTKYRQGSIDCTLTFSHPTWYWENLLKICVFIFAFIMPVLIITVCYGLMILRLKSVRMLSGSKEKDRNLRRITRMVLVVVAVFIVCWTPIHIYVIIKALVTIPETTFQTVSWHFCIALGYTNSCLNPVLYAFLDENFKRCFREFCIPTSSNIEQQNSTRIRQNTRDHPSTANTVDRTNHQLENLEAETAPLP
Eukaryotic translation initiation factor 4E, sequence (P63073 whole entry): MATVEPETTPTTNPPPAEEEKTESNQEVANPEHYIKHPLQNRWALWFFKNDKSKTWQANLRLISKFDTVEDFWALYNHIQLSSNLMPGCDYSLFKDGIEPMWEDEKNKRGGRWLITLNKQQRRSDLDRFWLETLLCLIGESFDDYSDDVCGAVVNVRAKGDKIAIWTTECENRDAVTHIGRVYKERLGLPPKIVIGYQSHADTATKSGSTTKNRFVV
Cytochrome P450 3A4, sequence (P08684 whole entry): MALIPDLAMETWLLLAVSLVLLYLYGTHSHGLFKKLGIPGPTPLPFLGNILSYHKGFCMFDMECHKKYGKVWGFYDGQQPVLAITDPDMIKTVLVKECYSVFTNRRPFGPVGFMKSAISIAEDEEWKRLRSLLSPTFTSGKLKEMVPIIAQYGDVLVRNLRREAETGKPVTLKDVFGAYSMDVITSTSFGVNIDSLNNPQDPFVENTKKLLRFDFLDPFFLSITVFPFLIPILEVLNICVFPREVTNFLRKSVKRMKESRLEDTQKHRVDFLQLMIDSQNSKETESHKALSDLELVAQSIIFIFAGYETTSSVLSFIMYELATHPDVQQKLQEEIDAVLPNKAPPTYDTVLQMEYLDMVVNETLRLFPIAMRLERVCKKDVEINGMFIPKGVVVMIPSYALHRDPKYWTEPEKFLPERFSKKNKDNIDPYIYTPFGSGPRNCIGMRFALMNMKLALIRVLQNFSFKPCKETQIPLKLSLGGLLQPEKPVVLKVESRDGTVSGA
Polyadenylate-binding protein 1, sequence (P11940 whole entry): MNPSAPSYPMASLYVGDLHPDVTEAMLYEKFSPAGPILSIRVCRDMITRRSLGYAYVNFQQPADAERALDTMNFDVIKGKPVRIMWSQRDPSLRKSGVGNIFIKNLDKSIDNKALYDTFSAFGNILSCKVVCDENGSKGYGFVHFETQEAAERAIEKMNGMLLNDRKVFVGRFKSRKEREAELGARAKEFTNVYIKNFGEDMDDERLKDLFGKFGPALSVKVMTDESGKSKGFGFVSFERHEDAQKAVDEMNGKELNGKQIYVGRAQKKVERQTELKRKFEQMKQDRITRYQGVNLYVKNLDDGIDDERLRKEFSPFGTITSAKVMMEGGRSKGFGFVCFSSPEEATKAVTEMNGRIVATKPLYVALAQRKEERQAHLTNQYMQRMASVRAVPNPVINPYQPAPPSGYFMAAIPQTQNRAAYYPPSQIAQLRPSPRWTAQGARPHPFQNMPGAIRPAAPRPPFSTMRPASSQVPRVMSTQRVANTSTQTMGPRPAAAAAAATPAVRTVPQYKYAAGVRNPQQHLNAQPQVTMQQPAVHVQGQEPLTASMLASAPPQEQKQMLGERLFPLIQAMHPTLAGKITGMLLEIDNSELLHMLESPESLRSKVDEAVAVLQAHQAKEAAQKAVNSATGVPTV
Peroxisome proliferator-activated receptor gamma/Nuclear receptor coactivator 1, sequence (P37231 whole entry): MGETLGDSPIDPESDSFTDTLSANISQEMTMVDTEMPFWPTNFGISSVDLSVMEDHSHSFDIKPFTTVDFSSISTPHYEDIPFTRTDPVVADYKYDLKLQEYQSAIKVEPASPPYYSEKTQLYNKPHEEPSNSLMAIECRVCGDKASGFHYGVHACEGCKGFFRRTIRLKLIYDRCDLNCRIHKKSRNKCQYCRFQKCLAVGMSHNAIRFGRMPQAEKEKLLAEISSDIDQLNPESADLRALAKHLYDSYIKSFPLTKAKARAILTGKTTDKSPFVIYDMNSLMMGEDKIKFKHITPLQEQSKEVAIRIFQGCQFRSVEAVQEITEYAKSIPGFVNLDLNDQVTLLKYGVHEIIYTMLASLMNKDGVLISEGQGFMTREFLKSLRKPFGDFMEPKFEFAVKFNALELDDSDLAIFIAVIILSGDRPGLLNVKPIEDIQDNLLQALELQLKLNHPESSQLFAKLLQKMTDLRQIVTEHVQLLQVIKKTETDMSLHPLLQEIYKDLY
Peroxisome proliferator-activated receptor gamma/Nuclear receptor coactivator 1, sequence (Q15788 whole entry, further chain): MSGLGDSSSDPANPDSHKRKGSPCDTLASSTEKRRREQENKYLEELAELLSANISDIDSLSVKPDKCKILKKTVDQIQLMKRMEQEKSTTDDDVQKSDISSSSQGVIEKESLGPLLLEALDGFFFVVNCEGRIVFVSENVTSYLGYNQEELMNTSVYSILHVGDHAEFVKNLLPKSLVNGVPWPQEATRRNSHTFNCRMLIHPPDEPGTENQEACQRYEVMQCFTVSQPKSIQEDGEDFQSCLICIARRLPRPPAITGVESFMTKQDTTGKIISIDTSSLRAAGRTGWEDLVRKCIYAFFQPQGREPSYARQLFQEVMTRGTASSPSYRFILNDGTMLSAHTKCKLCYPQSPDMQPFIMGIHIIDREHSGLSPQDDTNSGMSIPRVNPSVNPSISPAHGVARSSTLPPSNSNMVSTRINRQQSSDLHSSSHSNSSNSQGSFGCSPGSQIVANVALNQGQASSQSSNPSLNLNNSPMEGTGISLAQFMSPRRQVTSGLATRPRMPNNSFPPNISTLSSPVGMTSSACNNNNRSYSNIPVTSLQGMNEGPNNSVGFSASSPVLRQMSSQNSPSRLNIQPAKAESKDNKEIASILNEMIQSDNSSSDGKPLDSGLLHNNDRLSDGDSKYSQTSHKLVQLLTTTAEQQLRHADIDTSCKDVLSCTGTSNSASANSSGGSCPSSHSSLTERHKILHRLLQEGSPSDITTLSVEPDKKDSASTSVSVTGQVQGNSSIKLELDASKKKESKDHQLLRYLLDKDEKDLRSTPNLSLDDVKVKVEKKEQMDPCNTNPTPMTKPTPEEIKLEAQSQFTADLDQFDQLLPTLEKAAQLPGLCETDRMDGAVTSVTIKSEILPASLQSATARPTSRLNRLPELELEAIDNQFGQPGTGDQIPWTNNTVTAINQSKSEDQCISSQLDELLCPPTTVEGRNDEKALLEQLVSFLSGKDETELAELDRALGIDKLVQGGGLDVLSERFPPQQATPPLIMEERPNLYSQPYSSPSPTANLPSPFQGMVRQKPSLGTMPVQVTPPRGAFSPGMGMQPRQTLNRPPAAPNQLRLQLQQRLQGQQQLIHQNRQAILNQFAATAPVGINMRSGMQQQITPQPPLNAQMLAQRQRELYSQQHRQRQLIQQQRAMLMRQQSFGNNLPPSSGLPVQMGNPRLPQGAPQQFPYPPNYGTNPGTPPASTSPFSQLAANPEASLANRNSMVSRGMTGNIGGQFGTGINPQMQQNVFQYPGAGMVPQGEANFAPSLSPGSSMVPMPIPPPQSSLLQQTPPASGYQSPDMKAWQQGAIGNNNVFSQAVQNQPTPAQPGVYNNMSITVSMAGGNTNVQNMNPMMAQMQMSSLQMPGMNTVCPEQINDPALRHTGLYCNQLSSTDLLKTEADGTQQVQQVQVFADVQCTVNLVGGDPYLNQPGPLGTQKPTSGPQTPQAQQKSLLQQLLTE
Beta-lactamase (Salmonella choleraesuis (strain SC-B67), UniProt Q5J463), sequence (Q5J463 whole entry): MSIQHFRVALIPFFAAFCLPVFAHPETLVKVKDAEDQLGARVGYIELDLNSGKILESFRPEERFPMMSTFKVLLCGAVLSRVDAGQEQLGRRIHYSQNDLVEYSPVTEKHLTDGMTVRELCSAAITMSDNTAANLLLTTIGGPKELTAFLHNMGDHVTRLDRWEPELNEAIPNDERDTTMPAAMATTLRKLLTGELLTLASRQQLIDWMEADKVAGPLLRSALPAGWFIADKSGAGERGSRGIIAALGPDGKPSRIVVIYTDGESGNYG

O=C(NC(NC(=S)Nc1ccc(Br)cc1)C(Cl)(Cl)Cl)OCc1ccccc1 (stereo not given)
EC50 [1]: > 32 µM (inactive) | IC50 [2]: > 32 µM (inactive) | EC50 [3]: > 32 µM (inactive) | IC50 [4]: > 10 µM (inactive) | IC50 [5]: > 32 µM (inactive) | EC50 [6]: > 32 µM (inactive) | IC50 [7]: > 32 µM (inactive)

Cc1cc(/C=C2/C(=O)N(C)C(=S)N2C)ccc1N1CCCC1
EC50 [8]: 1.55 µM (active)

CCOC(=O)OCC1OC(C#Cc2ccc(Br)cc2)C=CC1OC(=O)OCC (stereo not given)
AC50 [9]: 2.51 µM (inconclusive) | AC50 [10]: 3.98 µM (inconclusive)

CCn1c(=O)cc(SCC(=O)Nc2ccc(Cl)cc2)c2ccccc21
EC50 [11]: > 79.4 µM (not active) | EC50 [12]: > 79.4 µM (not active) | EC50 [13]: > 79.4 µM (inactive)

CC1CCC2C(=O)OC(CN3C(=O)c4ccccc4C3=O)CN2C1c1ccc(Br)cc1 (stereo not given)
AC50 [9]: 3.16 µM (inconclusive) | AC50 [14]: 3.16 µM (inconclusive) | AC50 [10]: 3.98 µM (inconclusive)

Cc1ccc(NC(=S)NC(NC(=O)OCc2ccccc2)C(Cl)(Cl)Cl)c(C)c1 (stereo not given)
EC50 [1]: > 32 µM (inactive) | IC50 [2]: > 32 µM (inactive) | EC50 [3]: > 32 µM (inactive) | IC50 [4]: 8.74 µM (active) | IC50 [5]: 1.98 µM (active) | EC50 [6]: > 32 µM (inactive) | IC50 [7]: > 32 µM (inactive)

Sc1n[nH]c(-c2cc(Cl)ccc2Cl)n1
EC50 [11]: > 26.5 µM (not active) | EC50 [12]: > 79.4 µM (not active) | EC50 [13]: > 79.4 µM (inactive)

CCn1c(O)c(N=NC(=O)c2cccs2)c2ccccc21
EC50 [15]: > 180 µM (inactive) | EC50 [16]: 1.09 µM (active) | IC50 [17]: 70.2 µM (active) | EC50 [18]: 43.6 µM (active) | EC50 [19]: 31.2 µM (active)

Cc1ccc(/C=C2/SC(=S)N(c3ccc(S(=O)(=O)Nc4nccs4)cc3)C2=O)cc1
IC50 [20]: 14.2 µM (inactive) | IC50 [21]: 17.8 µM (active) | EC50 [22]: > 20 µM (inactive) | IC50 [23]: 38.6 µM (active) | IC50 [24]: > 20 µM (inactive) | IC50 [25]: 1.58 µM (active)

CN1CCN(c2ccccc2NC(=O)Cc2ccc(Cl)cc2)CC1
IC50 [26]: 36 µM (not active)

COc1cc(/C=C(/C)[N+](=O)[O-])ccc1OCc1ccccc1Cl
EC50 [27]: 8.05 µM (active) | IC50 [28]: 0.727 µM (active) | IC50 [29]: 7.64 µM (active) | EC50 [30]: 8.96 µM (active) | EC50 [31]: 9.08 µM (active) | EC50 [32]: 2.07 µM (active) | IC50 [33]: 2.45 µM (active)

CCN1CCc2c(C#N)c(NCc3ccccc3)nc(NCCO)c2C1
IC50 [34]: > 50 µM (not active) | IC50 [35]: > 100 µM (inactive) | IC50 [36]: > 100 µM (inactive)

COC(=O)c1c(C)cc(OC(C)=O)c(C)c1OC(C)=O
IC50 [37]: > 64 µM (inactive)

COC(=O)C1=C(C)NC(=O)C1(Nc1ccc(Cl)cn1)C(F)(F)F (stereo not given)
IC50 [37]: > 64 µM (inactive)

CN(/N=C/c1ccc(-c2ccc([N+](=O)[O-])cc2)o1)c1ccccc1
IC50 [38]: > 59.6 µM (inactive) | EC50 [8]: 1.44 µM (active) | IC50 [39]: > 59.6 µM (inactive)

CCn1c(SCC(=O)N/N=C/C=C\c2ccco2)nc2ccccc21
IC50 [35]: 12.3 µM (active) | IC50 [36]: 68.8 µM (active)
